According to US20040204493A1, “Carbonic anhydrase inhibitors as drugs to eradicate Helicobacter pylori in the mammalian, including human, stomach” (priority 2003, published 2004):
Like-named read-outs stand apart in the source and are kept apart here.

Legend:
H. pylori [1] = assay: Survival of wildtype H. pylori in acid, in vitro; type: cell-based, Helicobacter pylori
Description: (§1) H. pylori bacteria which could not produce α-carbonic anhydrase gene (deletion mutants) were unable to survive in acid and were incapable of raising their periplasmic pH even with wildtype urease activity levels. […] This is illustrated in FIG. 1 of the appended drawings.
Therefore, it is now understood in accordance with the present invention that it is the combination of urease activation, expression of UreI and the periplasmic carbonic anhydrase that allows gastric colonization by H. pylori. […] Thus, targeting the acid biology of this pathogen provides specific H. pylori therapy. It is recognized in accordance with the present invention that within these three targets, a safe drug is only available for carbonic anhydrase.

H. pylori [2] = assay: Periplasmic pH buffering of H. pylori in acid with urea, fluorescent pH sensitive dye BCECF (FIG. 1); type: cell-based, Helicobacter pylori
Method: as §1
Specifically, H. pylori was incubated in acid along with a fluorescent pH sensitive dye, BCECF, (bis-carboxy ethylcarboxy fluorescein) and then urea was added at 5 mM which is substantially the gastric juice concentration. In part A of the figure the increase in periplasmic pH is shown by the increased fluorescence of the dye indicating viable H. pylori bacteria.

urease = biological target: T1, urease (Helicobacter pylori, UniProt P69996); assay: Urease activity of H. pylori under in vitro treatment; type: cell-based; conditions: wildtype H. pylori
T1 construct: endogenous in cells
Description: as §1

[3] = tested on: basal acid secretion and stimulated acid secretion; conditions: humans, cited from earlier work
[4] = cited from earlier work

T1 sequence (P69996 whole entry): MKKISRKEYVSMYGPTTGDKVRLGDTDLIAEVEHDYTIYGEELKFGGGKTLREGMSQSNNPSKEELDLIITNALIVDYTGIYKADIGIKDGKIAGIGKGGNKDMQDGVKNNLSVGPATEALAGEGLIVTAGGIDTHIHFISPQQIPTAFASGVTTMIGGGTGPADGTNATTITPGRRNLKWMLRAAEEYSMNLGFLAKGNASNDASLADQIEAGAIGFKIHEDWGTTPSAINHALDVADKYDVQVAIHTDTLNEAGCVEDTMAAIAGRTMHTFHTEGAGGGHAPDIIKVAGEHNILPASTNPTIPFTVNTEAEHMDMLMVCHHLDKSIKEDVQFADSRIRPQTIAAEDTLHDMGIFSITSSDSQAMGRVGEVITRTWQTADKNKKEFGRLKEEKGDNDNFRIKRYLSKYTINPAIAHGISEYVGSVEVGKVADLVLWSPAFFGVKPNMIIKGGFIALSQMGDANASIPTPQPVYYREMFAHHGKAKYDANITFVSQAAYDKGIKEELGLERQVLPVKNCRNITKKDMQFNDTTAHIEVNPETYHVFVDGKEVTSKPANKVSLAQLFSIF
T1 sequence (P14916 whole entry, further chain): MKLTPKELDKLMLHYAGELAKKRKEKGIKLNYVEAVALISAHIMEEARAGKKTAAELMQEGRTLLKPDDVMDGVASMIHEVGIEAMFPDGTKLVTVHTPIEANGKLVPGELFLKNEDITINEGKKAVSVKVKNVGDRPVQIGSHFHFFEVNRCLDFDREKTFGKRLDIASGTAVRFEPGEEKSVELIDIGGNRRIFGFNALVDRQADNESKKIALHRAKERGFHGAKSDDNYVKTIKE

CC(=O)Nc1nnc(S(N)(=O)=O)s1 [acetazolamide]
loss of survival of H. pylori in acid (H. pylori [1]; in acid, drug present): > 3 log order of magnitude | bacterial ability to survive in acid (H. pylori [1]; wildtype H. pylori, in vitro treatment): inhibited the bacterial ability to survive in acid | periplasmic buffering of pH (BCECF fluorescence) (H. pylori [2]; normal H. pylori in acid, urea 5 mM, drug added to the medium, FIG. 1 part C): no periplasmic buffering of pH detected | bacterial ability to buffer its periplasm (H. pylori [2]; wildtype H. pylori in acid, in vitro treatment): inhibited | effect on urease activity (urease): without affecting urease activity | reduction of histamine stimulated acid secretion (MAO) ([3]; histamine stimulated): 83.2% | reduction of basal acid output (BAO) [3]: 92.3% | return of normal acid secretion following cessation of treatment [3]: 3-5 | time of treatment to maximal acid inhibition [3]: 3 to 5 days | relapse rate ([4]; 2 years after treatment, treated for 30 days (Valean et al.)): 6.2% | relapse rate ([4]; 3 week treatment, ulcer healing (Erdei et al.)): 11% | patients with intragastric pain abolished ([4]; 118 gastric ulcer patients, oral, after 3-5 days): 94% | patients with complete ulcer healing (endoscopic evaluation) ([4]; after 15 days of treatment): 87% | patients with complete ulcer healing (endoscopic evaluation) ([4]; after 30 days of treatment): 94%
